Literature values as cited in patent publication US5591773A, “Inhibition of cataract formation, diseases resulting from oxidative stress, and HIV replication by caffeic acid esters” (priority 1994, dated 1997).

Columns and labels:
[1] = system: mammalian cells; details: cited from earlier work
[2] = system: tumor promotion; details: cited from earlier work
[3] = system: bovine lens (H2O2); details: cited from earlier work
[4] = system: bovine lens (opacity); details: cited from earlier work
[5] = system: TPA-induced oxidative processes (PMN infiltration, reactive oxygen species generation, DNA base oxidation); details: sarcophytol A 6.5 nmol, TPA 6.5 nmol/treatment; cited from earlier work
[6] = system: HeLa cells; details: cited from earlier work

| Structure (SMILES) | anti-tumor promoting properties (in words) [2] | inhibition of TPA-mediated H2O2 production, lens (in words) [3] | inhibition of TPA-mediated lens opacification (in words) [4] | further results |
| --- | --- | --- | --- | --- |
| O=c1[nH]c(=O)n([C@H]2C[C@H](O)[C@@H](CO)O2)cc1CO [HMdUrd, 5-hydroxymethyl-2'-deoxyuridine] |  |  |  | cytotoxicity and mutagenicity (in words) [1]: cytotoxic and cytostatic to a number of mammalian cells and is mutagenic |
| COc1cc(/C=C/C(=O)CC(=O)/C=C/c2ccc(O)c(OC)c2)ccc1O [curcumin] | known anti-tumor promoters |  |  |  |
| C/C1=C\C=C(\C(C)C)[C@@H](O)C/C(C)=C/CC/C(C)=C/CC1 [sarcophytol A] | known anti-tumor promoters | effective inhibitors | effective inhibitors | inhibition of TPA-induced oxidative processes (in words) [5]: potent inhibitor |
| O=C(O[C@@H]1Cc2c(O)cc(O)cc2O[C@@H]1c1cc(O)c(O)c(O)c1)c1cc(O)c(O)c(O)c1 [EGCG, (-)-epigallocatechin gallate] | known anti-tumor promoters | effective inhibitors | effective inhibitors | inhibition of TPA-induced oxidative processes (in words) ([6]; EGCG 50 nmol): less effective inhibition of TPA-induced oxidative processes; HMdUrd and 8-OHdGua levels (in words) ([6]; EGCG 5-25 nmol preincubation, TPA): contained lower levels of HMdUrd and 8-OHdGua than cells treated only with TPA |
| O=C(O)/C=C/c1ccc(O)c(O)c1 [caffeic acid] | known anti-tumor promoters |  |  |  |
